“Also recorded” adds a separate entry of the source.
Experiments:
[1] = test system: BALB/c mice inoculated with CT26 murine colorectal cancer cells; test: First set of experiments: stool consistency and weight change after 5-FU with or without IAP; type: in vivo
Text: (§1) The study conducted included evaluation of the effects of administration of an IAP (“SYN-020” is synonymous with IAP and SYN BIAPII) along with a chemotherapeutic treatment with 5-fluorouracil (5-FU) in a murine model. […] Stool consistency was scored as the following: Score 0=Normal (no diarrhea); Score 2=Loose, formed stools; and Score 4=Diarrhea.
The first set of experiments included three groups of BALB/c mice inoculated with CT26 murine colorectal cancer cells into the right flank: (1) a no-treatment control group of 18 male mice (“untreated”); (2) a group of 18 male mice (“vehicle+5-FU”) that received an intraperitoneal (IP) QD (once daily) dose of 30 mg/kg of 5-FU for 5 consecutive days (days 0-4) and a vehicle was administered PO (orally) BID (twice a day) throughout the study (days −3 to +26); and (3) a group of 18 male mice (“SYN BIAPII+5-FU”) that received an IP QD dose of 30 mg/kg of 5-FU for 5 consecutive days (days 0-4) and an IAP (SYN-020) in a dose of 0.5 mg/kg, administered PO BID throughout the study (days −3 to +26).

[2] = test system: BALB/c mice inoculated with CT26 murine colorectal cancer cells; conditions: for Duration of Diarrhea (score = 4): Days < 4: animal-days with stool score < 4; for Duration of Diarrhea (score = 4): Days = 4: animal-days with stool score = 4 (diarrhea); for Duration of Diarrhea (score = 4): % Days = 4: percentage of total animal-days with diarrhea (score=4)
Text: as §1
(§2) The second set of experiments included four groups of BALB/c mice inoculated with CT26 murine colorectal cancer cells into the right flank: (1) a vehicle control group of 30 male mice (“vehicle”); (2) a group of 30 male mice that received a daily treatment dose of 100 U/dose, 0.5 mg/kg of SYN BIAP II alone (“SYN BIAP II”); (3) a group of 30 male mice (“vehicle+5-FU”) that received an IP QD dose of 30 mg/kg of 5-FU for 5 consecutive days (days 0-4) and vehicle treatment; and (4) a group of 30 male mice (“SYN BIAPII+5-FU”) that received an IP QD dose of 30 mg/kg of 5-FU for 5 consecutive days (days 0-4) and an IAP (SYN-020) in a dose of 100 U/dose, 0.5 mg/kg, administered PO BID throughout the study (days −3 to +26).
Arrows indicate 5-FU administration days. […] The statistical significance of group differences in daily stool scores was assessed on each day by Mann-Whitney rank-sum analysis.
Table 1 below compares the duration of 5-FU-induced diarrhea by calculating the percentage of total animal-days with diarrhea (score=4). Groups were compared by chi-square test.

[3] = test system: BALB/c mice inoculated with CT26 murine colorectal cancer cells; test: Second set of experiments: mean daily body weight change after 5-FU with or without IAP; type: in vivo; conditions: 5-FU 30 mg/kg IP QD days 0-4
Method: as §2
Cumulative differences in body weight change between treatment groups through 50% common group survival (Day (−3)-16) were assessed by calculating the area under the curve (AUC) for each animal using the trapezoidal transformation.

[4] = 5-FU 30 mg/kg IP QD days 0-4, vehicle or SYN-020 0.5 mg/kg PO BID days -3 to +26

Molecule	effect of 5-FU administration on stools and weight ([1]; 5-FU 30 mg/kg IP QD days 0-4, all of the treated animals)	day by which loose stools/diarrhea and associated weight loss recovered [1, 4] [days]	day on which loose stools/diarrhea and associated weight loss peaked [1, 4] [days]	day by which incidence of loose stools generally resolved ([2]; 5-FU 30 mg/kg IP QD days 0-4) [days]	day on which incidence of loose stools or diarrhea was first observed ([2]; 5-FU 30 mg/kg IP QD days 0-4) [days]	Duration of Diarrhea (score = 4): Days < 4 [2]	Duration of Diarrhea (score = 4): Days = 4 [2]	animal-days with diarrhea compared to untreated animals ([2]; mouse, in vivo)	Duration of Diarrhea (score = 4): % Days = 4 [2] [%]	day by which animals regained lost weight [3] [days]	day on which chemotherapy-induced weight loss peaked [3] [days]	chemotherapy-induced weight loss at peak (percent change compared to body weight at Day 0) ([3]; Day 7) [%]	recovery from the loose stools/diarrhea symptoms and associated weight loss ([1]; SYN-020 0.5 mg/kg PO BID plus 5-FU, compared with vehicle+5-FU, p<0.03)	stool consistency throughout the course of the analysis ([2]; mouse, in vivo, 0.5 mg/kg)
O=c1[nH]cc(F)c(=O)[nH]1 [vehicle + 5-FU, 5-fluorouracil]	caused loose stools/diarrhea, as well as associated weight loss; also recorded: caused loose stools/diarrhea, and associated weight loss	≤ 9	6	≤ 12	5	245	43	statistically significant cumulative increase	14.93	~20	7	~−20		
SYN BIAPII: intestinal alkaline phosphatase; BIAP II with stop codon and no leader sequence (SYN-020) (SEQ ID NO: 41) (protein, Synthetic polymer.) LIPAEEENPAFWNRQAAQALDVAKKLQPIQTAAKNVILFLGDGMGVPTVTATRILKGQMNGKLGPETPLAMDQFPYVALSKTYNVDRQVPDSAGTATAYLCGVKGNYRTIGVSAAARYNQCNTTRGNEVTSVINRAKKAGKAVGVVTTTRVQHASPAGAYAHTVNRNWYSDADLPADAQKNGCQDIAAQLVYNMDIDVILGGGRMYMFPEGTPDPEYPDDASVNGVRKDKQNLVQEWQAKHQGAQYVWNRTALLQAADDSSVTHLMGLFEPADMKYNVQQDHTKDPTLAEMTEAALQVLSRNPRGFYLFVEGGRIDHGHHDGKAYMALTEAIMFDNAIAKANELTSELDTLILVTADHSHVFSFGGYTLRGTSIFGLAPGKALDSKSYTSILYGNGPGYALGGGSRPDVNGSTSEEPSYRQQAAVPLASETHGGEDVAVFARGPQAHLVHGVQEETFVAHIMAFAGCVEPYTDCNLPAPATATSIPD						299	1		0.33				significantly faster recovery	normal stool consistency
